In publication PMC6344987 (BMC Complementary and Alternative Medicine, 2019):

Assays:
CYP3A4 = experiment: P450-Glo CYP3A4 (Luciferin-IPA) activity in primary isolated rat hepatocytes; assay type: in vitro ADME; settings: n = 6; for CYP3A4 activity relative to untreated isolated hepatocytes: substance alone, ketoconazole 1, warfarin 3, pomegranate peel extract 120, ellagic acid 48, guava leaves extract 294, quercetin 15 μg/ml; for CYP3A4 activity relative to untreated isolated hepatocytes, in combination with warfarin: combined with warfarin 3 μg/ml, pomegranate peel extract 120, ellagic acid 48, guava leaves extract 294, quercetin 15 μg/ml
Experimental: (§1) The liver of anaesthetized rat with inhaled isoflurane were perfused with collagenase enzyme as described by. Liver cells were dispersed gently in a sterile petri dish, and prepared for hepatocyte culture as described elsewhere. Cell were plated at a final concentration of 50,000 cell/100 μl and seeded in 96 well plates (100 μl). Cells were left to recover and grow overnight prior to the day of experiment.
Doses of chemicals selected for in vitro testing on primary cultured hepatocyte mitochondrial activity were estimated after literature review and preliminary work in order to obtain the IC50 values of tested compounds (data not shown). […] Directly after the addition of treatments, 25 μl of the lumenogenic substrate (Luciferin-H, Luciferin-ME or Luciferin-IPA) was added to each well. The plates were incubated at 37 °C for appropriate time according to manufacture protocol (Promega, USA). Later, 25 μl from culture media from each well was transferred into 96-well opaque white luminometer plate and equal amount of Luciferin detection reagent was added to each well to initiate the luminescent reaction. The reaction was allowed for 20 min at room temperature away from light. Finally, luminescence was read using GloMax®-Multi Detection System (Promega, USA).

CYP2C8 = experiment: P450-Glo CYP2C8 (Luciferin-ME) activity in primary isolated rat hepatocytes; assay type: in vitro ADME; settings: n = 6; for CYP2C8 activity relative to untreated isolated hepatocytes, in combination with warfarin: combined with warfarin 3 μg/ml, pomegranate peel extract 120, ellagic acid 48, guava leaves extract 294, quercetin 15 μg/ml
Experimental: as §1
(§2) Directly after the addition of treatments, 25 μl of the lumenogenic substrate (Luciferin-H, Luciferin-ME or Luciferin-IPA) was added to each well. The plates were incubated at 37 °C for appropriate time according to manufacture protocol (Promega, USA). Later, 25 μl from culture media from each well was transferred into 96-well opaque white luminometer plate and equal amount of Luciferin detection reagent was added to each well to initiate the luminescent reaction. The reaction was allowed for 20 min at room temperature away from light. Finally, luminescence was read using GloMax®-Multi Detection System (Promega, USA).

CYP2C9 = experiment: P450-Glo CYP2C9 (Luciferin-H) activity in primary isolated rat hepatocytes; assay type: in vitro ADME; settings: n = 6; for CYP2C9 activity relative to untreated isolated hepatocytes, in combination with warfarin: combined with warfarin 3 μg/ml, pomegranate peel extract 120, ellagic acid 48, guava leaves extract 294, quercetin 15 μg/ml; for CYP2C9 activity relative to untreated isolated hepatocytes: substance alone, sulfamethoxazole 130, warfarin 3, pomegranate peel extract 120, ellagic acid 48, guava leaves extract 294, quercetin 15 μg/ml
Experimental: as §1, §2

Sprague Dawley rats = experiment: In vivo pharmacodynamic study: prothrombin time (PT) and INR in rat plasma after five days of oral treatment; settings: oral daily for five days, WF 0.5 mg/kg, PPE 100 mg/kg, EA 40 mg/kg, GvL 250 mg/kg, QUE 12.75 mg/kg, mean ± SD (n = 8); for INR: calculated from PT; for PT: plasma on fifth day
Experimental: Adult Sprague Dawley laboratory rats were supplied by the Animal Facility of the University of […], Jordan). […] Rats were fasted overnight with free access to water. All experiments involving animals were conducted according to the institutional guidelines for the use of laboratory animals, which follows the guidelines of the Federation of European Laboratory Animal Science Associations (FELASA). The used animals were euthanized with cervical dislocation at the end of each experiment. The study protocol was revised and approved by the Committee of Scientific Research of the University of Petra (Approval number: 4-2016/2017, Date: 22/06/2017). The rats were weighed and randomized into ten groups (n = 8) and acclimatized for ten days before the experiment. Oral stainless steel gavage needle (Harvard Apparatus, Kent, UK) was used for oral administration of the treatments. Groups were treated daily for five days as following; group 1 received oral 0.5% CMC solution and served as a negative control. […] Group 3 received 100 mg/kg pomegranate peel extract suspension. […] Group 7 received 250 mg/kg guava leaves extract suspension. […] Plasma was separated, transferred directly into labeled Eppendorf tubes for PT and INR analysis. Reconstituted thromboplastin was added to 100 μl of each plasma sample in pre-warmed cuvette at 37 °C. […] INR was calculated from the detected PT according to the manufacturer's instructions.

in vivo = settings: rat, po, 0.5 mg/kg
Experimental: On the fifth day, blood samples were collected from the 18 h fasted rats at different time intervals namely; at zero time, 0.5, 1, 2, 3, 4, 6, 8, 12, 24, 48 and 72 h from all groups and drawn into EDTA micro tubes. The micro tubes were centrifuged at 7000 RPM for 10 min. Plasma was separated, transferred directly into labeled Eppendorf tubes and stored at − 20 °C until requested for HPLC analysis.
Reversed-phase high-performance liquid chromatography (HPLC) analysis was used to separate samples using Finnigan surveyor system (Thermo Electron Corporation, San Jose, California, USA) on a hypersil™ BDS C-18 Column (150 mm × 4.6 mm, 5 μm) (Thermo Electron Corporation, San Jose, California, USA) and quantified using ultraviolet detection at 310 nm (UV-VIS Plus Detector). The mobile phase was a mixture of 60% acetonitrile HPLC grade and 40% water containing 1 ml triethylamine/l and phosphoric acid (pH 3.0) with a flow rate of 1.0 ml/min (LC pump plus) using 20 μl injection volume (Autosampler Plus). Metronidazole benzoate was used as an internal standard. ChromQuest 4.2.34 chromatography data system was implemented for data acquisition and handling. […] Consequently, different concentrations of working solutions were prepared for plasma spiking by mixing 25 μl of working solutions in 975 μl of plasma (Fig. 1, Table 1). […] The supernatant was then analyzed using an in house validated HPLC method at the Faculty of Pharmacy and Medical Sciences, University of Petra, Amman, Jordan (MSc thesis, Farah Al-Mamoori, 2016, University of Petra).
The calculated pharmacokinetic parameters presented in the current study were maximum plasma concentration (Cmax), area under the curve (AUC), area under the first moment curve (AUMC), mean residence time (MRT), half-life (t0.5), clearance (CL), volume of distribution (Vz), time at which Cmax was observed (Tmax) and elimination rate constant (Kel).

AUC (in vivo; Sprague-Dawley)	Cmax (in vivo; Sprague-Dawley)	MRT (in vivo; Sprague-Dawley)	Tmax (in vivo; Sprague-Dawley)	Vd/F (in vivo; Sprague-Dawley)	CL/F (in vivo)	SMILES	CYP3A4 activity relative to untreated isolated hepatocytes (CYP3A4)	CYP2C8 activity relative to untreated isolated hepatocytes, in combination with warfarin (CYP2C8)	CYP2C8 activity relative to untreated isolated hepatocytes (CYP2C8; substance alone, trimethoprim 30, warfarin 3, pomegranate peel extract 120, ellagic acid 48, guava leaves extract 294, quercetin 15 μg/ml)	CYP3A4 activity relative to untreated isolated hepatocytes, in combination with warfarin (CYP3A4)	CYP2C9 activity relative to untreated isolated hepatocytes, in combination with warfarin (CYP2C9)	CYP2C9 activity relative to untreated isolated hepatocytes (CYP2C9)	INR (Sprague Dawley rats)	PT (Sprague Dawley rats)
–	–	–	–	–	–	CC(=O)N1CCN(c2ccc(OCC3COC(Cn4ccnc4)(c4ccc(Cl)cc4Cl)O3)cc2)CC1 (centres unmarked) [ketoconazole, reference compound]	significantly reduced	–	–	–	–	–	–	–
–	–	–	–	–	–	O=c1c(O)c(-c2ccc(O)c(O)c2)oc2cc(O)cc(O)c12 [QUE, quercetin hydrate]	inhibited	inhibited	inhibited	inhibited	inhibited	inhibited	1.39 ± 0.09	22.5 ± 1.20 s
107 µg·h/mL	3670 ± 663 ng/mL	25 ± 5 h	6 ± 8 h	0.035 ± 0.015 L	1.45 ± 0.5 mL/h	CC(=O)CC(c1ccccc1)c1c(O)c2ccccc2oc1=O (centres unmarked) [WF, Warfarin]	–	–	–	–	–	–	19 ± 1	191 ± 12 s
–	–	–	–	–	–	O=c1oc2c(O)c(O)cc3c(=O)oc4c(O)c(O)cc1c4c23 [EA, ellagic acid]	–	significantly inhibited	–	significantly inhibited	significantly inhibited	significant inhibition	1.43 ± 0.10	23 ± 1.31 s
